Seven compounds from patent publication US20230295234A1, “ANTIMICROBIAL PEPTIDOMIMETICS” (SPEXIS AG, priority 2020, published 2023) can be followed below.

Peptide text beside a SMILES is read from it. Where only a bound is given, the exact number is not on record here.

Series [1] deals with Escherichia coli ATCC 25922. Particulars: ATCC 25922. In short, it runs like this: (§1)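 Peptides were made up as 1 mg/mL stocks in sterile water. Colonies in 0.85% saline were set to 0.5 McFarland, then diluted in cation-adjusted Mueller-Hinton II broth to about 5×10^5 CFU/mL. Inoculum was combined with two-fold serial peptide dilutions in water containing 0.002% (final) polysorbate 80.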

Series [2] deals with Escherichia coli MCR-1 Af 45. Particulars: MCR-1 Af 45. In outline:
as §1

Series [3] has as its system Klebsiella pneumoniae SSI3010. Particulars: SSI3010. In short, it runs like this:
as §1

The test system of series [4] is human red blood cells (hRBC). The series can be described thus: Hemolysis of human red blood cells. The class given is cell-based. Particulars: red cells of human, 1 h. In short, it runs like this:
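Percent hemolysis is OD540 of peptide-treated supernatant relative to water-lysed cells. Each peptide was tested at 200 μg/mL against 20% (v/v) washed human erythrocytes. Incubation was 1 h at 37 °C, 300 rpm.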

As for `CC[C@H](C)[C@H](NC(=O)[C@@H](NC(=O)[C@@H]1CCCN1C(=O)[C@@H](NC(=O)[C@@H]1CCCN1C(=O)[C@H](CCCCN)NC(=O)[C@@H](N)CCCCN)C(C)C)[C@@H](C)CC)C(=O)N[C@@H](Cc1ccc(O)cc1)C(=O)N[C@H]1CSSC[C@@H](C(=O)N[C@@H](CCN)C(=O)N[C@@H](CCCNC(=N)N)C(=O)N[C@@H](CC2CC2)C(=O)O)NC(=O)[C@H](CCCCN)NC(=O)[C@@H](CCN)NC(=O)[C@H]([C@@H](C)O)NC(=O)[C@H](CCN)NC(=O)[C@H](CCCNC(=N)N)NC(=O)[C@H](CC(N)=O)NC1=O` [Example 79] (HELM PEPTIDE1{K.K.P.V.P.I.I.Y.C.N.R.[Dab].T.[NCC[C@@H](N[*:1])C(=O)[*:2]].K.C.[Dab].R.[O=C(O)[C@H](CC1CC1)N[*:1]]}$PEPTIDE1,PEPTIDE1,9:R3-16:R3$$$V2.0), the “Escherichia coli ATCC 25922 MIC” value in series [1] came to 0.0625 µg/mL. The “Escherichia coli MCR-1 Af 45 MIC” value in series [2] was not above 0.03125 µg/mL. Also, in series [3], the “Klebsiella pneumoniae SSI3010 MIC” value amounted to 0.125 µg/mL. Moreover, the “Hemolysis at 0.2 g/L” value in series [4] was 0%.
On to `CC[C@H](C)[C@H](NC(=O)[C@@H](NC(=O)[C@@H]1CCCN1C(=O)[C@@H](NC(=O)[C@@H]1CCCN1C(=O)[C@H](CCCCN)NC(=O)[C@@H](N)CCCCN)C(C)C)[C@@H](C)CC)C(=O)N[C@@H](Cc1ccc(O)cc1)C(=O)N[C@H]1CSSC[C@@H](C(=O)N[C@@H](CCN)C(=O)N[C@@H](CCCNC(=N)N)C(=O)N[C@@H](CC2CCOCC2)C(=O)O)NC(=O)[C@H](CCCCN)NC(=O)[C@@H](CCN)NC(=O)[C@H]([C@@H](C)O)NC(=O)[C@H](CCN)NC(=O)[C@H](CCCNC(=N)N)NC(=O)[C@H](CC(N)=O)NC1=O` [Example 80] (HELM PEPTIDE1{K.K.P.V.P.I.I.Y.C.N.R.[Dab].T.[NCC[C@@H](N[*:1])C(=O)[*:2]].K.C.[Dab].R.[O=C(O)[C@H](CC1CCOCC1)N[*:1]]}$PEPTIDE1,PEPTIDE1,9:R3-16:R3$$$V2.0), for which, in series [1], the “Escherichia coli ATCC 25922 MIC” value was 0.0625 µg/mL. Further, the “Escherichia coli MCR-1 Af 45 MIC” value in series [2] amounted to 0.0625 µg/mL. Also, in series [3], the “Klebsiella pneumoniae SSI3010 MIC” value was determined as 0.125 µg/mL. Moreover, the “Hemolysis at 0.2 g/L” value in series [4] is on record as 0%.
Take `CC[C@H](C)[C@H](NC(=O)[C@@H](NC(=O)[C@@H]1CCCN1C(=O)[C@@H](NC(=O)[C@@H]1CCCN1C(=O)[C@H](CCCCN)NC(=O)[C@@H](N)CCCCN)C(C)C)[C@@H](C)CC)C(=O)N[C@@H](Cc1ccc(O)cc1)C(=O)N[C@H]1CSSC[C@@H](C(=O)N[C@@H](CCN)C(=O)N[C@@H](CCCNC(=N)N)C(=O)N[C@H](C(=O)O)C2CC2)NC(=O)[C@H](CCCCN)NC(=O)[C@@H](CCN)NC(=O)[C@H]([C@@H](C)O)NC(=O)[C@H](CCN)NC(=O)[C@H](CCCNC(=N)N)NC(=O)[C@H](CC(N)=O)NC1=O` [Example 81] (HELM PEPTIDE1{K.K.P.V.P.I.I.Y.C.N.R.[Dab].T.[NCC[C@@H](N[*:1])C(=O)[*:2]].K.C.[Dab].R.[O=C(O)[C@@H](N[*:1])C1CC1]}$PEPTIDE1,PEPTIDE1,9:R3-16:R3$$$V2.0): in series [1], the “Escherichia coli ATCC 25922 MIC” value was not above 0.03125 µg/mL. Besides, the “Escherichia coli MCR-1 Af 45 MIC” value in series [2] was not above 0.03125 µg/mL. Further, the “Klebsiella pneumoniae SSI3010 MIC” value in series [3] came to 0.125 µg/mL. The “Hemolysis at 0.2 g/L” value in series [4] came to 0%.
Consider `CCC(CC)[C@H](NC(=O)[C@H](CCCNC(=N)N)NC(=O)[C@H](CCN)NC(=O)[C@@H]1CSSC[C@H](NC(=O)[C@H](Cc2ccc(O)cc2)NC(=O)[C@@H](NC(=O)[C@@H](NC(=O)[C@@H]2CCCN2C(=O)[C@@H](NC(=O)[C@@H]2CCCN2C(=O)[C@H](CCCCN)NC(=O)[C@@H](N)CCCCN)C(C)C)[C@@H](C)CC)[C@@H](C)CC)C(=O)N[C@@H](CC(N)=O)C(=O)N[C@@H](CCCNC(=N)N)C(=O)N[C@@H](CCN)C(=O)N[C@@H]([C@@H](C)O)C(=O)N[C@H](CCN)C(=O)N[C@@H](CCCCN)C(=O)N1)C(=O)O` [Example 82] (HELM PEPTIDE1{K.K.P.V.P.I.I.Y.C.N.R.[Dab].T.[NCC[C@@H](N[*:1])C(=O)[*:2]].K.C.[Dab].R.[CCC(CC)[C@H](N[*:1])C(=O)O]}$PEPTIDE1,PEPTIDE1,9:R3-16:R3$$$V2.0), for which the “Escherichia coli ATCC 25922 MIC” value in series [1] came out at 0.0625 µg/mL. Further, the “Escherichia coli MCR-1 Af 45 MIC” value in series [2] was 0.0625 µg/mL. In series [3], the “Klebsiella pneumoniae SSI3010 MIC” value worked out at 0.125 µg/mL. The “Hemolysis at 0.2 g/L” value in series [4] was 0%.
Take `CC[C@H](C)[C@H](NC(=O)[C@@H](NC(=O)[C@@H]1CCCN1C(=O)[C@@H](NC(=O)[C@@H]1CCCN1C(=O)[C@H](CCCCN)NC(=O)[C@@H](N)CCCCN)C(C)C)[C@@H](C)CC)C(=O)N[C@@H](Cc1ccc(O)cc1)C(=O)N[C@H]1CSSC[C@@H](C(=O)N[C@@H](CCN)C(=O)N[C@@H](CCCNC(=N)N)C(=O)N[C@@H](CC(C)(C)C)C(=O)O)NC(=O)[C@H](CCCCN)NC(=O)[C@@H](CCN)NC(=O)[C@H]([C@@H](C)O)NC(=O)[C@H](CCN)NC(=O)[C@H](CCCNC(=N)N)NC(=O)[C@H](CC(N)=O)NC1=O` [Example 83] (HELM PEPTIDE1{K.K.P.V.P.I.I.Y.C.N.R.[Dab].T.[NCC[C@@H](N[*:1])C(=O)[*:2]].K.C.[Dab].R.[CC(C)(C)C[C@H](N[*:1])C(=O)O]}$PEPTIDE1,PEPTIDE1,9:R3-16:R3$$$V2.0): the “Escherichia coli ATCC 25922 MIC” value in series [1] stood at 0.0625 µg/mL. Besides, in series [2], the “Escherichia coli MCR-1 Af 45 MIC” value is 0.0625 µg/mL. In addition, the “Klebsiella pneumoniae SSI3010 MIC” value in series [3] worked out at 0.25 µg/mL. The “Hemolysis at 0.2 g/L” value in series [4] was 0%.
In the case of `CC[C@H](C)[C@H](NC(=O)[C@@H](NC(=O)[C@@H]1CCCN1C(=O)[C@@H](NC(=O)[C@@H]1CCCN1C(=O)[C@H](CCCCN)NC(=O)[C@@H](N)CCCCN)C(C)C)[C@@H](C)CC)C(=O)N[C@@H](Cc1ccc(O)cc1)C(=O)N[C@H]1CSSC[C@@H](C(=O)N[C@@H](CCN)C(=O)N[C@@H](CCCNC(=N)N)C(=O)N[C@H](C(=O)O)C(C)(C)C)NC(=O)[C@H](CCCCN)NC(=O)[C@@H](CCN)NC(=O)[C@H]([C@@H](C)O)NC(=O)[C@H](CCN)NC(=O)[C@H](CCCNC(=N)N)NC(=O)[C@H](CC(N)=O)NC1=O` [Example 84] (HELM PEPTIDE1{K.K.P.V.P.I.I.Y.C.N.R.[Dab].T.[NCC[C@@H](N[*:1])C(=O)[*:2]].K.C.[Dab].R.[CC(C)(C)[C@H](N[*:1])C(=O)O]}$PEPTIDE1,PEPTIDE1,9:R3-16:R3$$$V2.0), in series [1], the “Escherichia coli ATCC 25922 MIC” value is 0.0625 µg/mL. Moreover, in series [2], the “Escherichia coli MCR-1 Af 45 MIC” value came out at 0.0625 µg/mL. The “Klebsiella pneumoniae SSI3010 MIC” value in series [3] amounted to 0.125 µg/mL. Moreover, the “Hemolysis at 0.2 g/L” value in series [4] is listed as 0%.
With `CC[C@H](C)[C@H](NC(=O)[C@@H](NC(=O)[C@@H]1CCCN1C(=O)[C@@H](NC(=O)CCNC(=O)[C@H](CCCNC(=N)N)NC(=O)[C@@H](N)CCCCN)C(C)C)[C@@H](C)CC)C(=O)N[C@@H](Cc1ccc(O)cc1)C(=O)N[C@@H]1C(=O)N[C@@H](CC(N)=O)C(=O)N[C@@H](CCCNC(=N)N)C(=O)N[C@@H](CCN)C(=O)N[C@@H]([C@@H](C)O)C(=O)N[C@H](CCN)C(=O)N[C@@H](CCCCN)C(=O)N[C@H](C(=O)N[C@@H](CCN)C(=O)N[C@@H](CCCNC(=N)N)C(=O)N[C@@H](Cc2ccc(O)cc2)C(=O)O)CSSC1(C)C` [Example 85, Lys-Arg-betaGly-Val-Pro-Ile-Ile-Tyr-Pen-Asn-Arg-Dab-Thr-^DDab-Lys-Cys-Dab-Arg-Tyr] (HELM PEPTIDE1{K.R.[bAla].V.P.I.I.Y.[Pen].N.R.[Dab].T.[NCC[C@@H](N[*:1])C(=O)[*:2]].K.C.[Dab].R.Y}$PEPTIDE1,PEPTIDE1,9:R3-16:R3$$$V2.0), the “Escherichia coli ATCC 25922 MIC” value in series [1] is 0.0625 µg/mL. For the same compound, in series [2], the “Escherichia coli MCR-1 Af 45 MIC” value is 0.0625 µg/mL. Also, the “Klebsiella pneumoniae SSI3010 MIC” value in series [3] is 0.125 µg/mL. The “Hemolysis at 0.2 g/L” value in series [4] turned out to be 0%.
